In patent US9242945B2, “Substituted 2-benzylidene-2H-benzo[b][1,4]thiazin-3(4H)-ones, derivatives thereof, and therapeutic uses thereof” (TEMPLE UNIVERSITY—OF THE COMMONWEALTH SYSTEM OF HIGHER …, priority 2011, dated 2016):
Like-named read-outs stand apart in the source and are kept apart here.

Legend:
[1] = tested on: K562 (chronic myelogenous leukemia; leukemia cell line +ve for Bcr-Abl); assay: Cytotoxicity assay, K562 tumor cells; assay type: cell-based; conditions: Homo sapiens, K562, 96 h treatment
Description: (§1) The effect of the compounds of the invention on tumor cells was determined by the assay described by Latham et al., Oncogene 12:827-837 (1996). Tumor cells K562 (chronic myelogenous leukemia; leukemia cell line +ve for Bcr-Abl) or DU145 (prostate cancer) were plated in 12-well dishes at a cell density of 2.5×10^4 cells well. The plated cells were treated 24 hours later with a compound of the invention dissolved in DMSO at multiple concentrations ranging from 0.01 μM to 100 μM. The plates were examined 96 hours later under an inverted microscope, Olympus CK-2 using a 10× objective, and compound activity was noted by physical observation. When necessary, the total number of viable cells was determined by trypsinizing the wells and counting the number of viable cells, as determined by trypan blue exclusion, using a hemacytometer. Where “Lower” and “Upper” value are provided in Table 5, the IC50 was determined to be within that range. When only a “Lower” value is provided and no “Upper” value is listed, the IC50 was that value, or less than or greater than that value, as set forth in the Table.
(§2) The cytotoxicity of Compound 42, (Z)-6-((2,6-dichlorobenzyl)sulfonyl)-2-(4-hydroxy-3-nitrobenzylidene)-2H-benzo[b][1,4]thiazin-3(4H)-one, was determined according the assay method of Example 7 on the prostate (androgen dependent or independent), breast and pancreatic cancer cell lines listed in Table 6A, below, and the additional cell lines listed in Table 6B, below. The human mesenchymal stem cell line HMSC.hTERT and normal human fibroblast cell line HFL was included in the test.

[2] = tested on: DU145 (prostate cancer); assay: Cytotoxicity assay, DU145 tumor cells; assay type: cell-based; conditions: Homo sapiens, DU-145; 96 h treatment; lower limit of the IC50 range, or the IC50 itself (or its bound) where no Upper value is listed; read-out: DU145 IC50 (μm) Lower (μm)
Description: as §1, §2

[3] = lower limit of the IC50 range, or the IC50 itself (or its bound) where no Upper value is listed, read-out: K562 IC50 (μm) Lower (μm)

Row | Structure (SMILES) | IC50 [1, 3] [µM] | IC50 ([1]; upper limit of the IC50 range, read-out: K562 IC50 (μm) Upper (μm)) [µM] | IC50 [2] [µM]
1 | CC(=O)Oc1ccc(/C=C2\Sc3cc(C(=O)O)ccc3NC2=O)cc1[N+](=O)[O-] [Compound 5, (Z)-2-(4-acetoxy-3-nitrobenzylidene)-3-oxo-3,4-dihydro-2H-benzo[b][1,4]thiazine-7-carboxylic acid] | ≥ 50 | ≤ 100 | > 100
2 | CC(=O)Oc1ccc(/C=C2\Sc3ccc(S(=O)(=O)Cc4c(Cl)cccc4Cl)cc3NC2=O)cc1 [Compound 9, (Z)-4-((6-((2,6-dichlorobenzyl)sulfonyl)-3-oxo-3,4-dihydro-2H-benzo[b][1,4]thiazin-2-ylidene)methyl)phenyl acetate] | < 1 |  | < 1
3 | O=C1Nc2ccc(F)cc2S/C1=C\c1ccc(O)c([N+](=O)[O-])c1 [Compound 44, (Z)-7-fluoro-2-(4-hydroxy-3-nitrobenzylidene)-2H-benzo[b][1,4]thiazin-3(4H)-one] | 0.25 |  | 0.75
